In one experiment the target is JAK2 (Homo sapiens (Human), UniProt O60674). In words: Jak biochemical HTRF assay, JAK2. The note with it: HTRF biochemical assay, recombinant GST-tagged catalytic domain; read-out: JAK2 IC50.
The target in the next experiment is JAK1 (Homo sapiens (Human), UniProt P23458). The experiment is described as follows: Jak biochemical HTRF assay, JAK1. The following applies: HTRF biochemical assay, recombinant GST-tagged catalytic domain; read-out: JAK1 IC50. In general terms: In TR-FRET formats the signal depends on donor and acceptor labels being close together.
Chain of JAK1 (P23458 875-1153): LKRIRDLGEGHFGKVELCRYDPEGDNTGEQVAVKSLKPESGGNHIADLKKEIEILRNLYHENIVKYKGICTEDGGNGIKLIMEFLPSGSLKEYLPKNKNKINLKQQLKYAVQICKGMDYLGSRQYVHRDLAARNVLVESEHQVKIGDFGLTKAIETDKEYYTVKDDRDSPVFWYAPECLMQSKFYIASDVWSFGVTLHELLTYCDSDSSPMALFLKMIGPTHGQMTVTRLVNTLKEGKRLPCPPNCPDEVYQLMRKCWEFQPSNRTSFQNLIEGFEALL

Data on 24 compounds can be found in US9725445B2, “Cycloalkyl nitrile pyrazolo pyridones as Janus kinase inhibitors” (Merck Sharp & Dohme Corp., priority 2013, dated 2017).

Chain of JAK2 (O60674 849-1124): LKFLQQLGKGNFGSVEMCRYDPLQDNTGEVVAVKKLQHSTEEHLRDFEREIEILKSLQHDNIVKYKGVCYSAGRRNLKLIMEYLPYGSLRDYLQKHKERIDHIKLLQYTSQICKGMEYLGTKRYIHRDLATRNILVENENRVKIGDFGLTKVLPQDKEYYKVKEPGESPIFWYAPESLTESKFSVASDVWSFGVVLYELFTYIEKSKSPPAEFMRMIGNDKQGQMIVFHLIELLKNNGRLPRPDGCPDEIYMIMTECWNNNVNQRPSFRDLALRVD

As to `N#Cc1ccc(Nc2nn([C@H]3CCC[C@@H]3C#N)c3cc[nH]c(=O)c23)cc1` [Example 3-112, 4-({1-[(1S,2S)-2-cyanocyclopentyl]-4-oxo-4,5-dihydro-1H-pyrazolo[4,3-c]pyridin-3-yl}amino)benzonitrile], the half-maximal inhibitory concentration (IC50) is 1.2 nM at JAK2 and 0.25 nM on JAK1.

`N#C[C@H]1CCCC[C@@H]1n1nc(Nc2ccccc2)c2c(=O)[nH]ccc21` [Example 3-25, (1S,2S)-2-[4-oxo-3-(phenylamino)-4,5-dihydro-1H-pyrazolo[4,3-c]pyridin-1-yl]cyclohexanecarbonitrile]: the IC50 on JAK2 was 3.2 nM; at JAK1, 0.45 nM.

For the compound `N#C[C@H]1CCCC[C@@H]1n1nc(Nc2ccc3c(c2)CN(C2CCOCC2)C3=O)c2c(=O)[nH]ccc21` [Example 15-59, (1S,2S)-2-(4-oxo-3-{[1-oxo-2-(tetrahydro-2H-pyran-4-yl)-2,3-dihydro-1H-isoindol-5-yl]amino}-4,5-dihydro-1H-pyrazolo[4,3-c]pyridin-1-yl)cyclohexanecarbonitrile], the figures for the IC50 at JAK2 and on JAK1 were 0.41 nM and 0.078 nM, respectively.

Take `CC1(C)C(=O)c2cc(Nc3nn([C@H]4CCCC[C@@H]4C#N)c4cc[nH]c(=O)c34)ccc2S1(=O)=O` [Example 3-171, (1S,2S)-2-{3-[(2,2-dimethyl-1,1-dioxido-3-oxo-2,3-dihydro-1-benzothiophen-5-yl)amino]-4-oxo-4,5-dihydro-1H-pyrazolo[4,3-c]pyridin-1-yl}cyclohexanecarbonitrile]: the IC50 was 5.5 nM at JAK2 and 1.16 nM at JAK1.

Regarding `N#C[C@H]1CCCC[C@@H]1n1nc(Nc2ccc(-c3ncno3)cc2)c2c(=O)[nH]ccc21` [Example 15-6, (1S,2S)-2-(3-{[4-(1,2,4-oxadiazol-5-yl)phenyl]amino}-4-oxo-4,5-dihydro-1H-pyrazolo[4,3-c]pyridin-1-yl)cyclohexanecarbonitrile], the IC50 at JAK2 came to 3.6 nM; on JAK1 it was 0.55 nM.

In the case of `CC(C)(C)OC(=O)CCN1Cc2cc(Nc3nn([C@H]4CCCC[C@@H]4C#N)c4cc[nH]c(=O)c34)ccc2S1(=O)=O` [Example 3-150, tert-butyl 3-[5-({1-[(1S,2S)-2-cyanocyclohexyl]-4-oxo-4,5-dihydro-1H-pyrazolo[4,3-c]pyridin-3-yl}amino)-1,1-dioxido-1,2-benzisothiazol-2(3H)-yl]propanoate], the IC50 is 0.55 nM on JAK2 and 0.066 nM on JAK1.

As for `N#C[C@@H]1CCCC[C@H]1n1nc(Nc2ccnc(F)c2)c2c(=O)[nH]ccc21` [Example 3-1, (1R,2R)-2-{3-[(2-Fluoropyridin-4-yl)amino]-4-oxo-4,5-dihydro-1H-pyrazolo[4,3-c]pyridin-1-yl}cyclohexanecarbonitrile], the IC50 came out at 97 nM at JAK2 and 18 nM at JAK1.

Regarding `N#C[C@H]1CCCC[C@@H]1n1nc(Nc2ccc(C(O)C(F)(F)F)cc2)c2c(=O)[nH]ccc21` (single isomer, unassigned) [Example 3-9, (1S,2S)-2-[4-oxo-3-({4-[(1S or 1R)-2,2,2-trifluoro-1-hydroxyethyl]phenyl}amino)-4,5-dihydro-1H-pyrazolo[4,3-c]pyridin-1-yl]cyclohexanecarbonitrile], the half-maximal inhibitory concentration (IC50) on JAK2 came out at 0.54 nM; at JAK1 it was 0.081 nM.

Consider `CC(C)(C)OC(=O)CN1Cc2cc(Nc3nn([C@H]4CCCC[C@@H]4C#N)c4cc[nH]c(=O)c34)ccc2S1(=O)=O` [Example 3-151, tert-butyl [5-({1-[(1S,2S)-2-cyanocyclohexyl]-4-oxo-4,5-dihydro-1H-pyrazolo[4,3-c]pyridin-3-yl}amino)-1,1-dioxido-1,2-benzisothiazol-2(3H)-yl]acetate], for which the results for the concentration for half-maximal inhibition (IC50) at JAK2 and at JAK1 were 0.52 nM and 0.041 nM, respectively.

Consider `N#C[C@H]1CCCC[C@@H]1n1nc(Nc2ccc3c(c2)CNC3C(F)F)c2c(=O)[nH]ccc21` (single isomer, unassigned) [Example 15-27, (1S,2S)-2-(3-{[(1R or 1S)-1-(difluoromethyl)-2,3-dihydro-1H-isoindol-5-yl]amino}-4-oxo-4,5-dihydro-1H-pyrazolo[4,3-c]pyridin-1-yl)cyclohexanecarbonitrile], for which the half-inhibitory concentration (IC50) is 0.72 nM on JAK2 and 0.22 nM at JAK1.

As for `CC1(C)C(=O)Nc2cc(Nc3nn([C@H]4CCCC[C@@H]4C#N)c4cc[nH]c(=O)c34)ccc21` [Example 15-7, (1S,2S)-2-{3-[(3,3-dimethyl-2-oxo-2,3-dihydro-1H-indol-6-yl)amino]-4-oxo-4,5-dihydro-1H-pyrazolo[4,3-c]pyridin-1-yl}cyclohexanecarbonitrile], the figures for the IC50 at JAK2 and on JAK1 were 1.4 nM and 0.11 nM, respectively.

With `N#C[C@H]1CCCC[C@@H]1n1nc(Nc2cccc(Cn3ccnn3)c2)c2c(=O)[nH]ccc21` [Example 3-26, (1S,2S)-2-(4-oxo-3-{[3-(1H-1,2,3-triazol-1-ylmethyl)phenyl]amino}-4,5-dihydro-1H-pyrazolo[4,3-c]pyridin-1-yl)cyclohexanecarbonitrile], the IC50 was found to be 0.49 nM at JAK2 and 0.1 nM at JAK1.

As for `N#C[C@H]1CCCC[C@@H]1n1nc(Nc2ccc(-c3ncco3)cc2)c2c(=O)[nH]ccc21` [Example 15-1, (1S,2S)-2-(3-{[4-(1,3-Oxazol-2-yl)phenyl]amino}-4-oxo-4,5-dihydro-1H-pyrazolo[4,3-c]pyridin-1-yl)cyclohexanecarbonitrile], the IC50 at JAK2 was 1.9 nM; at JAK1, 0.13 nM.

For `N#C[C@H]1CCCC[C@@H]1n1nc(Nc2ccc3c(c2)CN(C2CCCCC2)C3=O)c2c(=O)[nH]ccc21` [Example 15-34, (1S,2S)-2-{3-[(2-cyclohexyl-1-oxo-2,3-dihydro-1H-isoindol-5-yl)amino]-4-oxo-4,5-dihydro-1H-pyrazolo[4,3-c]pyridin-1-yl}cyclohexanecarbonitrile], the IC50 on JAK2 stood at 0.62 nM; on JAK1, 0.082 nM.

On to `N#CCC1(n2nc(Nc3ccc(C(N)C(F)F)cc3)c3c(=O)[nH]ccc32)CCCCC1` (single isomer, unassigned) [Example 9-2, (R or S)-2-(1-(3-(4-(1-Amino(-2,2-difluoroethyl)phenylamino)-4-oxo-4,5-dihydro-1H-pyrazolo[4,3-c]pyridin-1-yl)cyclohexyl)acetonitrile], for which the results for the IC50 on JAK2 and at JAK1 were 0.51 nM and 0.22 nM, respectively.

As for `CSCc1cc(Cn2ccnn2)cc(Nc2nn([C@H]3CCCC[C@@H]3C#N)c3cc[nH]c(=O)c23)c1` [Example 3-78, (1S,2S)-2-[3-({3-[(methylsulfanyl)methyl]-5-(1H-1,2,3-triazol-1-ylmethyl)phenyl}amino)-4-oxo-4,5-dihydro-1H-pyrazolo[4,3-c]pyridin-1-yl]cyclohexanecarbonitrile], the IC50 is 4.4 nM on JAK2 and 2 nM at JAK1.

For the compound `CN(C)[C@@H]1CC[C@H](n2nc(Nc3ccc(Cl)c(F)c3)c3c(=O)[nH]ccc32)[C@@H](C#N)C1` [Example 5-1, (1S,2S,5R)-2-(3-((4-Chloro-3-fluorophenyl)amino)-4-oxo-4,5-dihydro-1H-pyrazolo[4,3-c]pyridin-1-yl)-5-(dimethylamino)cyclohexanecarbonitrile], the values for the IC50 on JAK2 and on JAK1 were 19 nM and 1.5 nM, respectively.

On to `Cn1ccc(NC(=O)Cc2cccc(Nc3nn([C@@H]4CCCC[C@H]4C#N)c4cc[nH]c(=O)c34)c2)n1` [Example 3-15, 2-[3-({1-[(1R,2R)-2-cyanocyclohexyl]-4-oxo-4,5-dihydro-1H-pyrazolo[4,3-c]pyridin-3-yl}amino)phenyl]-N-(1-methyl-1H-pyrazol-3-yl)acetamide], for which the IC50 at JAK2 turned out to be 30 nM; on JAK1, 14 nM.

As for `CC(C)CN1Cc2ccc(Nc3nn([C@H]4CCCC[C@@H]4C#N)c4cc[nH]c(=O)c34)cc2C1` [Example 3-75, (1S,2S)-2-(3-{[2-(2-methylpropyl)-2,3-dihydro-1H-isoindol-5-yl]amino}-4-oxo-4,5-dihydro-1H-pyrazolo[4,3-c]pyridin-1-yl)cyclohexanecarbonitrile], the 50% inhibitory concentration (IC50) at JAK2 stood at 0.68 nM; on JAK1 it was 0.28 nM.

With `N#C[C@H]1CCCC[C@@H]1n1nc(Nc2ccc3c(c2)CN(C2CCCC2)C3=O)c2c(=O)[nH]ccc21` [Example 3-154, (1S,2S)-2-{3-[(2-cyclopentyl-1-oxo-2,3-dihydro-1H-isoindol-5-yl)amino]-4-oxo-4,5-dihydro-1H-pyrazolo[4,3-c]pyridin-1-yl}cyclohexanecarbonitrile], the IC50 at JAK2 amounted to 0.45 nM; on JAK1, 0.056 nM.

With `CC(C)(C)OC(=O)CN1Cc2ccc(Nc3nn([C@H]4CCCC[C@@H]4C#N)c4cc[nH]c(=O)c34)cc2C1` [Example 3-164, tert-butyl [5-({1-[(1S,2S)-2-cyanocyclohexyl]-4-oxo-4,5-dihydro-1H-pyrazolo[4,3-c]pyridin-3-yl}amino)-1,3-dihydro-2H-isoindol-2-yl]acetate], the results for the IC50 at JAK2 and at JAK1 were 2.5 nM and 0.33 nM, respectively.

For the compound `CS(=O)(=O)c1ccc(Nc2nn([C@@H]3CCCC[C@H]3C#N)c3cc[nH]c(=O)c23)cc1` [Example 3-4, (1R,2R)-2-(3-{[4-(methylsulfonyl)phenyl]amino}-4-oxo-4,5-dihydro-1H-pyrazolo[4,3-c]pyridin-1-yl)cyclohexanecarbonitrile], the IC50 amounted to 16 nM at JAK2 and 9.4 nM on JAK1.

In the case of `CCNC(c1ccc(Nc2nn([C@H]3CCC[C@@H]3C#N)c3cc[nH]c(=O)c23)cc1)C(F)(F)F` (single isomer, unassigned) [Example 3-114, (1S,2S)-2-[3-({4-[(1S or 1R)-1-(ethylamino)-2,2,2-trifluoroethyl]phenyl}amino)-4-oxo-4,5-dihydro-1H-pyrazolo[4,3-c]pyridin-1-yl]cyclopentanecarbonitrile], the values for the IC50 on JAK2 and at JAK1 were 0.28 nM and 0.19 nM, respectively.

For the compound `N#C[C@H]1C[C@H](N2CCC2)CC[C@@H]1n1nc(Nc2ccc(OC(F)(F)F)cc2)c2c(=O)[nH]ccc21` [Example 5-23, (1S,2S,5R)-5-(azetidin-1-yl)-2-(4-oxo-3-((4-(trifluoromethoxy)phenyl)amino)-4,5-dihydro-1H-pyrazolo[4,3-c]pyridin-1-yl)cyclohexanecarbonitrile], the IC50 at JAK2 came out at 31 nM; at JAK1 it was 0.88 nM.

Broadly, the IC50 is the midpoint of a concentration-inhibition curve.
